US20230000813A1, “COMPOUND FOR THE TREATMENT OF BOVINE OR SWINE RESPIRATORY DISEASE” (Intervet Inc., priority 2016, published 2023)
Converted amounts (≈) assume the structure as drawn. Like-named read-outs stand apart in the source and are kept apart here.

What was measured:
Format in all cases: cell-based
[1] = tested on: Mannheimia haemolytica MH 10720 (154, BRD field isolate); experiment: MIC, broth-microdilution (CLSI VET01-A4)
Outline: (§1)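 Visual no-turbidity endpoint over twofold compound dilutions in microdilution trays, interpreted according to CLSI VET01-S3.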

[2] = tested on: Mannheimia haemolytica MH 12587 (1071, BRD field isolate, macrolide-resistance: erm+, E+); experiment: MIC, broth-microdilution (CLSI VET01-A4)
Outline: as §1

[3] = tested on: Mannheimia haemolytica MH 6357 (M7/2, reference strain, cattle infection strain); experiment: MIC, broth-microdilution (CLSI VET01-A4)
Outline: as §1

[4] = tested on: Mannheimia haemolytica MH 6374 (ATCC 33396, reference strain); experiment: MIC, broth-microdilution (CLSI VET01-A4)
Outline: as §1

[5] = tested on: Pasteurella multocida PM 10775 (080130003051, BRD field isolate); experiment: MIC, broth-microdilution (CLSI VET01-A4)
Outline: as §1

[6] = tested on: Pasteurella multocida PM 12080 (IV102277-0093, BRD field isolate); experiment: MIC, broth-microdilution (CLSI VET01-A4)
Outline: as §1

[7] = tested on: Pasteurella multocida PM 6267 (P 2225 (L386), reference strain, mouse infection strain); experiment: MIC, broth-microdilution (CLSI VET01-A4)
Outline: as §1

[8] = tested on: Pasteurella multocida PM 6391 (ATCC 43137, reference strain); experiment: MIC, broth-microdilution (CLSI VET01-A4); conditions: strain PM 6391
Outline: as §1

[9] = tested on: Mannheimia haemolytica MH 13065 (XB0446-6003.9, BRD field isolate); experiment: MIC, broth-microdilution (CLSI VET01-A4)
Outline: (§2)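 Broth microdilution per CLSI VET01-A4 using doubling dilution series of compound. MIC taken as the lowest concentration with no turbidity visible to the unaided eye, interpreted per CLSI VET01-S3.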

[10] = tested on: Mannheimia haemolytica MH 13093 (XB0472-6014.1, BRD field isolate); experiment: MIC, broth-microdilution (CLSI VET01-A4)
Outline: as §2

[11] = tested on: Acinetobacter baumanii AB 15919 (IV369-2012, dermatitis field isolate); experiment: MIC, broth-microdilution (CLSI VET01-A4); conditions: strain AB 15919
Method: (§3) The Minimum inhibitory concentrations (MIC) of compounds according to the invention were determined by the broth-microdilution method according to CLSI document VET01-A4.
(§4) Microdilution trays containing a doubling dilution series of the test compound were used for the tests.
(§5) The MIC results were interpreted according to the CLSI documents VET01-S3. The lowest concentration of compound at which no visible growth (i.e. no turbidity) detected by the unaided eye was recorded as the MIC.

[12] = tested on: Acinetobacter baumanii AB 16496 (ATCC 19606, reference strain); experiment: MIC, broth-microdilution (CLSI VET01-A4); conditions: strain AB 16496
Method: as §3, §4, §5

[13] = tested on: Mannheimia haemolytica MH 12180 (KLI-02944, BRD field isolate); experiment: MIC, broth-microdilution (CLSI VET01-A4); conditions: strain MH 12180
Method: as §3, §4, §5

[14] = tested on: Pasteurella multocida PM 14426 (0006-439, BRD field isolate, macrolide-resistant); experiment: MIC, broth-microdilution (CLSI VET01-A4); conditions: strain PM 14426, macrolide-resistant
Method: as §3, §4, §5

[15] = tested on: Staphylococcus aureus SA 5816 (2139, mastitis field isolate); experiment: MIC, broth-microdilution (CLSI VET01-A4); conditions: strain SA 5816
Method: as §3, §4, §5

[16] = tested on: Staphylococcus aureus SA 6114 (ATCC 29213, reference strain); experiment: MIC, broth-microdilution (CLSI VET01-A4); conditions: strain SA 6114
Method: as §3, §4, §5

[17] = tested on: 20 isolates of Actinobacillus (A.) pleuropneumoniae; experiment: MIC50/MIC90, broth-microdilution, European respiratory tract isolates
Method: (§6) The in vitro activity of compounds against 20 isolates of Actinobacillus (A.) pleuropneumoniae, 20 of Bordetella (B.) bronchiseptica, 20 of Histophilus (H.) somni, 40 of Mannheimia (M.) haemolytica and 40 of Pasteurella (P.) multocida collected in different European countries were determined. All bacteria were isolated from the respiratory tract of swine and cattle suffering from respiratory disease. All isolates were epidemiologically unrelated as specified by the different suppliers.
(§7) The minimum inhibitory concentrations (MIC) of compounds according to the invention were determined by the broth-microdilution method according to CLSI document VET01-A4.
(§8) Microdilution trays containing a doubling dilution series of the test compounds were used for the tests.
as §5

[18] = tested on: 20 isolates of Bordetella (B.) bronchiseptica; experiment: as above
Method: as §6, §7, §8, §5

[19] = tested on: 20 isolates of Histophilus (H.) somni; experiment: as above
Method: as §6, §7, §8, §5

[20] = tested on: 40 isolates of Mannheimia (M.) haemolytica; experiment: as above
Method: as §6, §7, §8, §5

[21] = tested on: 40 isolates of Pasteurella (P.) multocida; experiment: as above
Method: as §6, §7, §8, §5

[22] = tested on: 15 isolates of H. parasuis; experiment: MIC50/MIC90, agar-dilution method (GC agar base); conditions: Haemophilus parasuis
Method: The in vitro activity of 3 representative compounds of this invention against 15 isolates of H. parasuis was determined. All strains were isolated from the respiratory tract of swine in different European countries The MICs for all isolates were determined by using the agar-dilution method according to CLSI document VET01-A4 [1]with the following modification: GC agar base was used instead of Mueller-Hinton agar base for the preparation of the agar-dilution plates. Results were interpreted according to the CLSI document VET01-S3.

For `CC(C)(N)C(NC(=O)c1ccc(C#Cc2ccc(CNCc3ccncc3)cc2)cc1)C(=O)NO` (centres unmarked) [C. 320], the MIC ([1]; Mannheimia haemolytica MH 10720, read-out: MIC MH 10720) was 0.4 µM, the MIC ([1]; strain MH 10720) was 0.25 µg/mL and the “MIC MH 12587” value ([2]; Mannheimia haemolytica MH 12587, macrolide-resistant) was 1.6 µM (≈ 0.754 µg/mL). For the same molecule, the MIC ([2]; strain MH 12587, macrolide-resistant) was 0.5 µg/mL (≈ 1.06 µM), the MIC ([3]; Mannheimia haemolytica MH 6357, read-out: MIC MH 6357) was 0.8 µM and the MIC ([3]; strain MH 6357) was 0.5 µg/mL. For the same molecule, the MIC ([4]; Mannheimia haemolytica MH 6374, read-out: MIC MH 6374) was 0.8 µM, the MIC ([4]; strain MH 6374) was 0.25 µg/mL and the “MIC PM 10775” value ([5]; Pasteurella multocida PM 10775) was “<=0.1 μM”. For the same molecule, the MIC ([5]; strain PM 10775) was at most 0.016 µg/mL, the “MIC PM 12080” value ([6]; Pasteurella multocida PM 12080) was “<=0.1 μM” and the MIC ([6]; strain PM 12080) was at most 0.016 µg/mL. The “MIC PM 6267” value ([7]; Pasteurella multocida PM 6267) was “<=0.1 μM”, the MIC ([7]; strain PM 6267) was at most 0.016 µg/mL and the MIC [8] was 0.032 µg/mL (≈ 0.0679 µM). For the same molecule, the MIC [9] was 0.8 µM (≈ 0.377 µg/mL), the MIC [10] was 1.6 µM (≈ 0.754 µg/mL) and the MIC [11] was 16 µg/mL (≈ 33.9 µM). For the same molecule, the MIC [12] was over 16 µg/mL, the MIC [13] was 0.5 µg/mL (≈ 1.06 µM) and the MIC [14] was at most 0.016 µg/mL. The MIC [15] was over 16 µg/mL, the MIC [16] was over 16 µg/mL and the MIC50 [17] was 0.5 µg/mL (≈ 1.06 µM). The MIC90 [17] was 0.5 µg/mL (≈ 1.06 µM), the MIC50 [18] was 2 µg/mL (≈ 4.24 µM) and the MIC90 [18] was 2 µg/mL (≈ 4.24 µM). For the same molecule, the MIC50 [19] was 0.063 µg/mL (≈ 0.134 µM), the MIC90 [19] was 0.125 µg/mL (≈ 0.265 µM) and the MIC50 [20] was 0.5 µg/mL (≈ 1.06 µM). It also gave an MIC90 [20] of 0.5 µg/mL (≈ 1.06 µM), an MIC50 [21] of at most 0.016 µg/mL and an MIC90 [21] of 0.032 µg/mL (≈ 0.0679 µM). For the same molecule, the MIC50 [22] was 2 µg/mL (≈ 4.24 µM) and the MIC90 [22] was 4 µg/mL (≈ 8.48 µM).
